{"source": "patent US9746484B2", "about": "“Binding partners specific for vitamin D epimers in vitamin D assays” (Siemens Healthcare Diagnostics Inc., priority 2014, dated 2017)", "tested_on": "biotinylated monoclonal anti-25OH vitamin D antibody", "assay": "LOCI 25(OH)D immunoassay, 3-epimer cross-reactivity without blocking antibody", "type": "binding, sheep", "conditions": "no anti-3-epimer antibody; for Avg. Cross-reactivity, No anti-3-epimer VD Ab Added: average of ten patient sera spiked with 100 ng/mL 3-epimer vitamin D3", "description": "The 25OH Vitamin D (25(OH)D) immunoassay format employed was a homogeneous competitive chemiluminescent immunoassay based on LOCI® assay technology. The assay was performed on the Siemens Dimension® EXL automated integrated clinical chemistry system (Siemens Healthcare Diagnostics Inc., Deerfield, Ill.). The assay measured the total concentration of 25(OH)D2 and/or 25(OH)D3 in serum and plasma samples. The LOCI® assay reagents included a releasing reagent, two synthetic bead reagents and a biotinylated monoclonal anti-25OH vitamin D antibody reagent. The first bead reagent (designated “Sensibeads”) was coated with streptavidin and contained a photosensitive dye. The second bead reagent (designated “Chemibeads”) was coated with a 25(OH)D3 analog and contained chemiluminescent dye. Sample was incubated with the releasing reagent to release 25(OH)D molecules including 3-epimeric compounds from vitamin D binding proteins. The reaction mixture was then incubated with biotinylated antibody to form a 25(OH)D-biotinylated antibody complex. […] Chemibeads were added to bind excess free biotinylated antibody. Sensibeads were then added to bind to the biotin portion of the biotinylated antibody. Aggregates of Chemibead-analog/antibody-biotin/streptavidin-Sensibeads were formed as a result. Illumination of the reaction mixture with light at 680 nm generates singlet oxygen from Sensibeads, which diffused into the Chemibeads and triggered a chemiluminescent reaction. The resulting chemiluminescent signal was measured at 612 nm and is inversely proportional to the concentration of total 25(OH)D in the sample.\nThe effect of adding anti-3-epimer-VD antibody 8F10.1 (anti-3-epimer VD Ab) on the 3-epimer cross-reactivity for the assay is shown in Table 1. […] The 3-epimer cross-reactivity was calculated by the difference between 25(OH)D2 or 25(OH)D3 values with and without the spiked 3-epimer compound divided by the amount of added 3-epimer compound.", "note": "Several values for one entry are separate records, joined by “and”; a condition that tells them apart may be missing. Equal entries are not always repeated.", "data": [{"smiles": "C=C1CC[C@@H](O)C/C1=C/C=C1\\CCC[C@]2(C)[C@@H]([C@H](C)CCCC(C)(C)O)CC[C@@H]12", "note": "[3-epimer D3, 3-epi-25-hydroxyvitamin D3]", "values": [{"measurement": "Avg. Cross-reactivity, No anti-3-epimer VD Ab Added", "result": 13.7, "unit": "%"}, {"measurement": "Avg. Cross-reactivity, No anti-3-epimer VD Ab Added", "setting": "listed as 3-epimer vitamin D3 compound", "result": 13.7, "unit": "%"}, {"measurement": "3-epimer Cross-Reactivity, No anti-3-epimer VD Ab Added", "setting": "individual patient sera (Sample ID 1-10) spiked with 100 ng/mL 3-epimer vitamin D3", "result": "17.9% (2×) and 11.9% and 12.6% and 16.1% and 10.2% and 9.1% and 10.5% and 15.3% and 15.5%"}]}]}
